Data: publication doi:10.1101/2022.01.20.477145v2 (biorxiv, 2022)

Biological target: NL-PRMT5 (NLuc-PRMT5) (Homo sapiens, UniProt O14744)
Assay: NanoBRET target engagement, displacement of CBH-002
Assay type: cell-based

Chain of NL-PRMT5 (NLuc-PRMT5) (O14744 2-637): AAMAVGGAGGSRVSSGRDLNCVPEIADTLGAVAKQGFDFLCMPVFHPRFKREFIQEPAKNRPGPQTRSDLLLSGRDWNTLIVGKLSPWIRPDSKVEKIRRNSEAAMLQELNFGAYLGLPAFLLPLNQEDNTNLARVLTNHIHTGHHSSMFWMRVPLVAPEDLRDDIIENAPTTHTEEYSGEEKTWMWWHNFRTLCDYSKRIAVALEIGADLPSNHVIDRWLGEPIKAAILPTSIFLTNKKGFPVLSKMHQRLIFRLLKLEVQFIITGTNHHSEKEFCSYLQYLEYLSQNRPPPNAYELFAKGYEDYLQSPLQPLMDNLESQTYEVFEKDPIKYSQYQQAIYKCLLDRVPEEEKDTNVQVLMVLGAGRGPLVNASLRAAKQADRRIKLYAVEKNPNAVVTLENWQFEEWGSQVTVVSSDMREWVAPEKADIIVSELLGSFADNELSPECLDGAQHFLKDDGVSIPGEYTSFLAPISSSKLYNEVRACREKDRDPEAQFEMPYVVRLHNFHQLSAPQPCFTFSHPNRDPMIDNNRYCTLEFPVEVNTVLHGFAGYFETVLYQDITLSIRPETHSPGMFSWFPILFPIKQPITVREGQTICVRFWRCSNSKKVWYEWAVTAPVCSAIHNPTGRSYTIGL

EC50: 300 ± 100 nM
Compound: Nc1ncnc2c1ccn2[C@@H]1O[C@H]([C@H](O)c2ccccc2)[C@@H](O)[C@H]1O [LLY-283]
